Six molecules from patent publication US7696184B2, “Amino-propanol derivatives as sphingosine-1-phosphate receptor modulator” (Novartis AG, priority 2003, dated 2010) can be followed below.

The subject of test [1] is peripheral blood lymphocytes. The test is described as follows: In vivo: Blood Lymphocyte Depletion. Particulars: rats, p.o. The method, then:
B. In vivo: Blood Lymphocyte Depletion
A compound of formula I or the vehicle is administered orally by gavage to rats. Tail blood for hematological monitoring is obtained on day -1 to give the baseline individual values, and at 2, 6, 24, 48 and 72 hours after application. In this assay, the compounds of formula I deplete peripheral blood lymphocytes when administered at a dose of 0.03 to 3 mg/kg. For example, following results are obtained: depletion of peripheral blood lymphocytes by more than 50%

In test [2] the target is T1, human S1P receptor EDG-1 (S1P1) (Homo sapiens, UniProt P21453).
T1 construct: expressed in transfected cells
T1 sequence (P21453 whole entry): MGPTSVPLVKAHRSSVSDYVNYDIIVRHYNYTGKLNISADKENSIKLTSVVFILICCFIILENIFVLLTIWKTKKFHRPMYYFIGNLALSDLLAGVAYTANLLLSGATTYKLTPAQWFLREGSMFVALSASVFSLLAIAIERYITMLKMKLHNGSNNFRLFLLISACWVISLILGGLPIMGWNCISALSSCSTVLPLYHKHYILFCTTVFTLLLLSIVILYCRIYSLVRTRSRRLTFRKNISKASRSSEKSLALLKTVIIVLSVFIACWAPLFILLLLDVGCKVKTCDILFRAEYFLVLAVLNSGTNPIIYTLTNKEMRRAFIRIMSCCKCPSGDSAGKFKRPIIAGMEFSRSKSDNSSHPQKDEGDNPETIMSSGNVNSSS
Description: S1P receptor profiling, GTP[γ-35S] binding SPA, S1P1. To be noted: for EC50: GTP[γ-35S] binding, membranes of transfected CHO or RH7777 cells. The class given is biochemical. The method, then:
(§1) Sphingosine-1-phosphate (S1P) Receptor Profiling
(§2) Agonist activities of compounds are tested on the human SIP receptors EDG-1 (S1P1), EDG-3 (S1P3), EDG-5 (S1P2), EDG-6 (S1P4) and EDG-8 (S1P5). […] The assay technology used is SPA (scintillation proximity based assay). Briefly, DMSO dissolved compounds are serially diluted and added to SPA-bead (Amersham-Pharmacia) immobilised S1P receptor expressing membrane protein (10-20 μg/well) in the presence of 50 mM Hepes, 100 mM NaCl, 10 mM MgCl2, 10 μM GDP, 0.1% fat free BSA and 0.2 nM GTP [γ-^35S] (1200 Ci/mmol). After incubation in 96 well microtiterplates at RT for 120 min, unbound GTP [γ-^35S] is separated by a centrifugation step. Luminescence of SPA beads triggered by membrane bound GTP [γ-^35S] is quantified with a TOPcount plate reader (Packard). EC50s are calculated using standard curve fitting software.
On the technique in general: GTPγS is a poorly hydrolysed GTP analogue; its binding reports G protein activation.

Test [3] has as its target T2, human S1P receptor EDG-5 (S1P2) (Homo sapiens, UniProt O95136).
T2 construct: expressed in transfected cells
The test is described as follows: S1P receptor profiling, GTP[γ-35S] binding SPA, S1P2. The class given is biochemical. Particulars: membranes of transfected CHO or RH7777 cells. How it is done:
as §1, §2

For test [4], the target named is T3, human S1P receptor EDG-3 (S1P3) (Homo sapiens, UniProt Q99500).
T3 construct: expressed in transfected cells
T3 sequence (Q99500 whole entry): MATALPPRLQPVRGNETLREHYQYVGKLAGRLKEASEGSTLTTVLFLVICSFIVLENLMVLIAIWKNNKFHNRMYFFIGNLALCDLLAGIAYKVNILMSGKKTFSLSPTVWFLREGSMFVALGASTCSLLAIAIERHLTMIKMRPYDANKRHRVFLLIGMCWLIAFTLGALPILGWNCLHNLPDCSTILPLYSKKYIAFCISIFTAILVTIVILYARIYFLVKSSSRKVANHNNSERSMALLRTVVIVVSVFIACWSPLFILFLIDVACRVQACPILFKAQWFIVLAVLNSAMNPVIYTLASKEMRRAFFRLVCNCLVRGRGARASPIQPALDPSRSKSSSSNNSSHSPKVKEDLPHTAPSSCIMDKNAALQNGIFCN
The test is described as follows: S1P receptor profiling, GTP[γ-35S] binding SPA, S1P3. The format is biochemical. Particulars: membranes of transfected CHO or RH7777 cells. The method, then: as §1, §2

Test [5] addresses T4, human S1P receptor EDG-6 (S1P4) (Homo sapiens, UniProt O95977).
T4 construct: expressed in transfected cells
T4 sequence (O95977 1-384): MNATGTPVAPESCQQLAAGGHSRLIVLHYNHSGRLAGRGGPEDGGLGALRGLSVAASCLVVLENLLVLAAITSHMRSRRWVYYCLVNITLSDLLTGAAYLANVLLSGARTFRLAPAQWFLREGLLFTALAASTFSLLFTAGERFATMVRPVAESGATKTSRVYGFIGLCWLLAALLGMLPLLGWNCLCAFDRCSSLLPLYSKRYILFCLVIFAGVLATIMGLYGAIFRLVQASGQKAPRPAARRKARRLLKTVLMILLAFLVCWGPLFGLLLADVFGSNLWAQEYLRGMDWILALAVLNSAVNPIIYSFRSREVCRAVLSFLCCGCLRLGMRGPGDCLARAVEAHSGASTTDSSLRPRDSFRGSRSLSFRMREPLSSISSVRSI
Description: S1P receptor profiling, GTP[γ-35S] binding SPA, S1P4. The format is biochemical. To be noted: for EC50: GTP[γ-35S] binding, membranes of transfected CHO or RH7777 cells; for S1P4 mode of action: column beside S1P4 EC50. The method, then: as §1, §2

For test [6], the target named is T5, human S1P receptor EDG-8 (S1P5) (Homo sapiens, UniProt Q9H228).
T5 construct: expressed in transfected cells
T5 sequence (Q9H228 whole entry): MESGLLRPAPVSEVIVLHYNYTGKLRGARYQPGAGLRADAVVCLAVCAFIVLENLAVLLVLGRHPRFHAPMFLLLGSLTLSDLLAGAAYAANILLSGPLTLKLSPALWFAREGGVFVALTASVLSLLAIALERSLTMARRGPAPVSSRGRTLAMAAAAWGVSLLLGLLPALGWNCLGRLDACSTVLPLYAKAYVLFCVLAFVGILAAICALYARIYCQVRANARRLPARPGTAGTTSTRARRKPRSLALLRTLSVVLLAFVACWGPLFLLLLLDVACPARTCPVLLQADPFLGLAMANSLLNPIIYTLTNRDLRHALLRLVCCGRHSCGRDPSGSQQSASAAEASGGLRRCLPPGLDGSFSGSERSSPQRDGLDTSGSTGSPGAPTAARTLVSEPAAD
The test is described as follows: S1P receptor profiling, GTP[γ-35S] binding SPA, S1P5. The format is biochemical. Particulars: for EC50: GTP[γ-35S] binding, membranes of transfected CHO or RH7777 cells; for S1P5 mode of action: column beside S1P5 EC50. The method, then: as §1, §2

T2 sequence (O95136 whole entry): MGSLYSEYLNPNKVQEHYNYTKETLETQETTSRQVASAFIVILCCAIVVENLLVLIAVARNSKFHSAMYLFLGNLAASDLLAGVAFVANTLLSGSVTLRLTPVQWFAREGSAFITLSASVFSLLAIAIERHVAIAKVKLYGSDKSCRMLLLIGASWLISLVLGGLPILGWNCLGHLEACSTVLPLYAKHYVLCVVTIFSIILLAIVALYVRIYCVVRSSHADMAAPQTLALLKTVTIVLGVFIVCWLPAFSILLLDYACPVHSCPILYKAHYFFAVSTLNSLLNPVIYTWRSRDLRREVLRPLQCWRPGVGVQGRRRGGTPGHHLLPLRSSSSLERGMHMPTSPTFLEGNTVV

For `CCCCCOc1c(Cl)cc(CC[C@@](C)(N)CO)cc1Cl` [Example 1, (R)-2-Amino-4-(3,5-dichloro-4-pentyloxy-phenyl)-2-methyl-butan-1-ol Hydrotriflate], the results for the “dose giving depletion of peripheral blood lymphocytes by more than 50%” value (“dose giving depletion … by more than 50%” for short) in test [1] (after 6 h) and in test [1] (after 48 h) were 0.5 mg/kg and > 1 mg/kg, respectively.
The term EC50 denotes the concentration giving half of the maximal effect. A high value points to lower potency in that assay. Turning to `CCCCCOc1c(Cl)cc(CC[C@@](C)(N)COP(=O)(O)O)cc1Cl` [Example 4, Phosphoric acid mono-[(R)-2-amino-4-(3,5-dichloro-4-pentyloxy-phenyl)-2-methyl-butyl]ester], the “S1P1 mode of action” value in test [2] is recorded as “Agon”. In addition, the EC50 in test [2] was 0.2 nM; in test [3] it was > 10000 nM; in test [4] it was > 10000 nM; in test [5], 0.2 nM; in test [6] it was 0.2 nM. Further, the “S1P4 mode of action” value in test [5] was “Agon”. Besides, the “S1P5 mode of action” value in test [6] is reported as “Agon”.
As for `COc1cc(CC[C@@](C)(N)CO)cc(Cl)c1OCCCC(F)(F)C(F)(F)F.Cl` [Example 5, (R)-2-Amino-4-[3-chloro-5-methoxy-4-(4,4,5,5,5-pentafluoro-pentyloxy)-phenyl]-2-methyl-butan-1-ol Hydrochloride], the results for the “dose giving depletion … by more than 50%” value in test [1] (after 6 h) and in test [1] (after 48 h) were 0.2 mg/kg and > 1 mg/kg, respectively.
On to `COc1cc(CC[C@@](C)(N)COP(=O)(O)O)cc(Cl)c1OCCCC(F)(F)C(F)(F)F` [Example 6, Phosphoric acid mono-{(R)-2-amino-4-[3-chloro-5-methoxy-4-(4,4,5,5,5-pentafluoro-pentyloxy)-phenyl]-2-methyl-butyl}ester], for which the “S1P1 mode of action” value in test [2] was “Agon”. Besides, the concentration for a half-maximal effect (EC50) in test [2] is 1.3 nM; in test [3] it was > 10000 nM; in test [4], > 10000 nM; in test [5], 0.8 nM; in test [6] it was 0.2 nM. In addition, the “S1P4 mode of action” value in test [5] is listed as “Agon”. For the same molecule, in test [6], the “S1P5 mode of action” value was “Agon”.
On to `CCOc1ccc(CCOc2c(Cl)cc(CC[C@@](C)(N)CO)cc2OC)cc1` [Example 9, (R-2-Amino-4-{3-chloro-4-[2-(4-ethoxy-phenyl)-ethoxy]-5-methoxy-phenyl}-2-methyl-butan-1-ol Hydrotriflate], for which, in test [1] (after 6 h), the “dose giving depletion … by more than 50%” value was 0.2 mg/kg.
Take `CCOc1ccc(CCOc2c(Cl)cc(CC[C@@](C)(N)COP(=O)(O)O)cc2OC)cc1` [Example 10, Phosphoric acid mono-((R)-2-amino-4-{3-chloro-4-[2-(4-ethoxy-phenyl)-ethoxy]-5-methoxy-phenyl}-2-methyl-butyl)ester]: the EC50 in test [2] was 0.3 nM; in test [3] it was > 10000 nM; in test [4], 111 nM; in test [5], > 10000 nM; in test [6], 2.5 nM.
